Results on twelve compounds are retold here after US11584727B2, “2-thioxothiazolidin-4-one derivatives active as transthyretin ligands and uses thereof” (BSIM Therapeutics, S.A., priority 2014, dated 2023).

Usually melting point stands for the temperature of the solid-liquid transition. Usually IC50 stands for the concentration at which inhibition is half-maximal. A low value points to inhibition by little substance.

The target in data set [1] is T1, wild type transthyretin (WT-TTR) (Homo sapiens, UniProt P02766).
T1 construct: made in house; host or cells: E. coli BL21 (DE3), pET23a plasmid
The experiment in a line: WT-TTR amyloid fibril formation assay (turbidimetry, acid-induced). To be noted: pH 4.4, 72 hours; for Fibril Formation (%): WT-TTR 3.6 μM, 1:1 TTR-compound stoichiometry, 37° C., normalized to no-compound control (100%); for IC50: WT-TTR fixed at 3.6 μM, ten compound concentrations. The data set is classed as biochemical. Here is the method: (§1) The first set of evaluations is based on a fast, stagnant fibril formation assay that is used for the early screening of compounds, be they virtual screening hits or newly synthesized analogues. In this assay, a solution of the compound under test at 1.8, 3.6 or 7.2 μM is added to a solution of TTR at 3.6 μM, so that there is enough compound to bind to either one or both of TTR's binding sites. The pH of the resulting solution is then lowered to 4.4 to promote amyloidogenesis. The process of amyloid fibril formation over time is assessed by turbidimetry measurements at three different wavelengths (405, 450 and 490 nm, or at 550, 600 and 650 nm when the compound absorbs light at the previous wavelengths), using a spectrophotometer endowed with a BioTek microplate reader. The extent of fibril formation of each mixture is determined by normalizing a sample with the protein (TTR), in absence of compounds, which, at the end of 72 hours, represents 100% of amyloid fibril formation. In each experiment, each compound concentration is tested in triplicate. For each compound concentration and incubation time, the arithmetic mean of the triplicate experiments is calculated, as well as the arithmetic mean of the three measured wavelengths. High activity can be defined as a percentage of fibril formation below 10% at compound concentration 7.2 μM (TTR:compound stoichiometry 1:2) and below 40% at 3.6 μM (TTR:compound stoichiometry 1:1).
The in vitro activity of the compounds was assessed through a biochemical assay based on turbidimetry measurements, in which fibril formation is induced by acidification of the solution to pH 4.4 after incubation with the hit compound to be tested. The amount of amyloid fibrils formed is then monitored throughout 72 hours. Further details on this assay are provided in the “Evaluation of amyloid inhibition in vitro” subsection in “Materials and Methods”.
Experimental evaluation of the in vitro activity of virtual screening hits against amyloid fibril formation by TTR was carried out using a biochemical assay based on turbidimetry measurements. In this assay, fibril formation is induced by acidification of the solution to pH 4.4 after incubation with the hit compound to be tested. The amount of amyloid fibrils formed is monitored over 72 hours. Further details on the assay are provided in the “Evaluation of amyloid inhibition in vitro” subsection below.
(§2) Purchased virtual screening hits and all synthesized (optimization) derivatives were dissolved in DMSO to a final concentration of 10.8 mM to provide a primary stock solution. Several secondary stock solutions were prepared in DMSO by dilution of the primary stock solution and the concentrations were chosen depending on the effectiveness of the compound in inhibiting the TTR amyloid fibril formation.
(§3) The fibril formation assay was adapted to run in a high-throughput screening mode. For this purpose, 96-well microplates were used with a final assay volume of 100 μL.
(§4) One microLitre (μL) of different compound secondary stock solutions was added to 50 μL of a 7.2 μM wild type TTR (WT-TTR) or Val122Ile-TTR (V122I-TTR) solutions in 10 miliMolar (mM) sodium phosphate buffer, 100 mM KCl and 1 mM EDTA, pH 7.2, previously dialyzed against the same buffer solution. After 30 minutes of incubation at room temperature, the pH of the mixture was lowered to 4.4 with 49 μL of 200 mM acetate buffer, 100 mM KCl and 1 mM EDTA, pH 4.3.
The mixtures were incubated at 37° C. during 72 hours. Turbidity at 405 nm, 450 nm and 490 nm (or at 550, 600 and 650 nm when the test compound absorbs light at the previous wavelengths) was measured over time (0, 17, 24, 41, 48, 65 and 72 hours) using a BioTek Microplate Spectrophotometer to evaluate the extent of fibril formation. Immediately before the turbidity measurements, the mixtures were gently shacked during 1 minute to homogenize well and not damage the formed amyloid aggregates and fibrils.

The target in data set [2] is Val122Ile transthyretin (V122I-TTR) (Homo sapiens, UniProt P02766, V142I). The experiment in a line: V122I-TTR amyloid fibril formation assay (turbidimetry, acid-induced). To be noted: pH 4.4, 72 hours; for Fibril Formation (%): V122I-TTR 3.6 μM, 37° C.; for IC50: V122I-TTR fixed at 3.6 μM, ten compound concentrations. Type of data set: biochemical. Here is the method:
as §1, §2, §3, §4
The mixtures were incubated at 37° C. during 72 hours. Turbidity at 405 nm, 450 nm and 490 nm (or at 550, 600 and 650 nm when the test compound absorbs light at the previous wavelengths) was measured over time (0, 17, 24, 41, 48, 65 and 72 hours) using a BioTek Microplate Spectrophotometer to evaluate the extent of fibril formation. Immediately before the turbidity measurements, the mixtures were gently shacked during 1 minute to homogenize well and not damage the formed amyloid aggregates and fibrils. The final turbidity was calculated as an average of the three wavelengths measured.
In addition, control samples containing TTR with no inhibitor and 1% DMSO, as well as inhibitor in absence of TTR were tested and analyzed.
The extent of amyloid fibril formation data was normalized to TTR in the absence of inhibitor, assigned to be 100% fibril formation (or 0% amyloid inhibition) at the end of the experiment.
The extent of amyloid fibril formation throughout 72 hours was determined as described in the “Evaluation of amyloid inhibition in vitro” subsection above.
IC50 values were calculated from the inhibition curves obtained by fitting the values by a nonlinear curve method using the OriginPro7 (OriginLab Corporation, USA).

The compound `Cc1cc(/C=C2\SC(=S)N(CCCC(=O)O)C2=O)cc(C)c1O` [AT50-C11, (Z)-5-(4′-hydroxy-3′,5′-dimethylphenylmethylidene)-3-(3′-hydroxycarbonylpropyl)-2-thioxothiazolidin-4-one] showed a melting point of 250 to 252 °C. In data set [1], the “Fibril Formation (%)” value was 26% and the 50% inhibitory concentration (IC50) worked out at 2.43 ± 1.25 µM. In data set [2], the “Fibril Formation (%)” value is given as 66% and half-maximal inhibition (IC50) was put at 4.52 µM.

`O=C(O)CN1C(=O)/C(=C/c2cc(Cl)cc(Cl)c2)SC1=S` [AT50-A05, (Z)-3-hydroxycarbonylmethyl-5-(3′,5′-dichlorophenylmethylidene)-2-thioxothiazolidin-4-one] had a melting point of 272 to 273 °C. For the same compound, in data set [1], the “Fibril Formation (%)” value is 17% and 1.62 ± 0.13 µM corresponded to half-maximal inhibition (IC50). Moreover, in data set [2], the “Fibril Formation (%)” value stood at 28% and the concentration for half-maximal inhibition (IC50) was 2.32 µM.

`Cc1cc(/C=C2\SC(=S)N(CC(=O)O)C2=O)cc(C)c1O` [AT50-A17, (Z)-3-hydroxycarbonylmethyl-5-(4′-hydroxy-3′,5′-dimethylphenylmethylidene)-2-thioxothiazolidin-4-one] yielded a melting point of 261 to 263 °C. In data set [1], the “Fibril Formation (%)” value was determined as 27% and the 50% inhibitory concentration (IC50) amounted to 2.37 ± 0.47 µM. In data set [2], the “Fibril Formation (%)” value stood at 51% and the IC50 worked out at 3.16 µM.

`O=C(O)CCCN1C(=O)/C(=C/c2cc(Cl)c(O)c(Cl)c2)SC1=S` [AT50-C10, (Z)-5-(3′,5′-dichloro-4′-hydroxyphenylmethylidene)-3-(3′-hydroxycarbonylpropyl)-2-thioxothiazolidin-4-one] had a melting point of 247 to 249 °C. In addition, in data set [1], the “Fibril Formation (%)” value amounted to 27% and it took 1.87 ± 0.16 µM to reach half-maximal inhibition (IC50). Further, in data set [2], the “Fibril Formation (%)” value is listed as 37% and half-maximal inhibition (IC50) required 2.46 µM.

Compound `O=C(O)CCN1C(=O)/C(=C/c2cc(Cl)c(O)c(Cl)c2)SC1=S` [AT50-C15, (Z)-3-(2′-hydroxycarbonylethyl)-5-(3′,5′-dichloro-4′-hydroxyphenylmethylidene)-2-thioxothiazolidin-4-one] registered a melting point of 259 to 260 °C. In data set [1] (TTR 3.6 μM), the “inhibitory activity against TTR amyloid fibril formation compared with reference compounds (in words)” value was “superior to that of 2OH-PCB80”. Besides, in data set [1], the “Fibril Formation (%)” value is given as 7% and the half-maximal inhibitory concentration (IC50) amounted to 1.03 ± 0.1 µM. In addition, in data set [2], the “Fibril Formation (%)” value is 17% and the concentration for half-maximal inhibition (IC50) stood at 1.62 µM.

In the case of `O=C(O)CCN1C(=O)/C(=C/c2cc(F)c(O)c(F)c2)SC1=S` [AT50-C13, (Z)-5-(3′,5′-difluoro-4′-hydroxyphenylmethylidene)-3-(2′-hydroxycarbonylethyl)-2-thioxothiazolidin-4-one], the melting point fell in the range of 216 to 217 °C. In addition, in data set [1], the “Fibril Formation (%)” value is recorded as 32% and the IC50 was determined as 2.31 ± 0.45 µM. In addition, in data set [2], the “Fibril Formation (%)” value is 36% and the IC50 came out at 2.6 µM.

Take `O=C(O)CN1C(=O)/C(=C/c2cc(F)cc(F)c2)SC1=S` [AT50-A12, (Z)-3-hydroxycarbonylmethyl-5-(3′,5′-difluorophenylmethylidene)-2-thioxothiazolidin-4-one]: the melting point lay within 225 to 227 °C. Besides, in data set [1], the “Fibril Formation (%)” value was 44% and the 50% inhibitory concentration (IC50) worked out at 2.88 ± 0.24 µM. In addition, in data set [2], the “Fibril Formation (%)” value is 91% and the half-inhibitory concentration (IC50) was 7.8 µM.

Regarding `O=C(O)CCCN1C(=O)/C(=C/c2cc(F)c(O)c(F)c2)SC1=S` [AT50-C09, (Z)-5-(3′,5′-difluoro-4′-hydroxyphenylmethylidene)-3-(3′-hydroxycarbonylpropyl)-2-thioxothiazolidin-4-one], the melting point was 207 to 209 °C. Besides, in data set [1], the “Fibril Formation (%)” value was 33% and the concentration for half-maximal inhibition (IC50) was 2.45 ± 0.35 µM. Moreover, in data set [2], the “Fibril Formation (%)” value was 48% and 3.19 µM corresponded to half-maximal inhibition (IC50).

Compound `Cc1cc(/C=C2\SC(=S)N(CCC(=O)O)C2=O)cc(C)c1O` [AT50-C16, (Z)-3-(2′-hydroxycarbonylethyl)-5-(4′-hydroxy-3′,5′-dimethylphenylmethylidene)-2-thioxothiazolidin-4-one] came in with a melting point of 253 to 254 °C. In data set [1], the “Fibril Formation (%)” value is recorded as 24% and it took 2.29 ± 0.13 µM to reach half-maximal inhibition (IC50). Also, in data set [2], the “Fibril Formation (%)” value turned out to be 41% and the IC50 amounted to 2.71 µM.

For `O=C(O)CCN1C(=O)/C(=C/c2cc(Cl)cc(Cl)c2)SC1=S` [AT50-C14, (Z)-3-(2′-hydroxycarbonylethyl)-5-(3′,5′-dichlorophenylmethylidene)-2-thioxothiazolidin-4-one], the melting point lay in the range of 245 to 247 °C. For the same compound, in data set [1], the “Fibril Formation (%)” value came to 26% and the IC50 is 1.95 ± 0.26 µM. Moreover, in data set [2], the “Fibril Formation (%)” value turned out to be 55% and the IC50 was 4.37 µM.

Take `O=C(O)CN1C(=O)/C(=C/c2ccc(O)cc2)SC1=S` [AT50-A11, (Z)-3-hydroxycarbonylmethyl-5-(4′-hydroxyphenylmethylidene)-2-thioxothiazolidin-4-one]: the melting point fell in the range of 213 to 214 °C. Also, the “Fibril Formation (%)” value in data set [1] is 35%.

As to `O=C(O)CN1C(=O)/C(=C/c2cc(O)c(O)c(Cl)c2)SC1=S` [AT50-A01, (Z)-5-(3′-chloro-4′,5′-dihydroxyphenylmethylidene)-3-hydroxycarbonylmethyl-2-thioxothiazolidin-4-one], the melting point was in the range of 241 to 242 °C. Also, in data set [1], the “Fibril Formation (%)” value worked out at 12% and it took 1.45 ± 0.04 µM to reach half-maximal inhibition (IC50). Further, in data set [2], the “Fibril Formation (%)” value amounted to 29% and the IC50 stood at 2.34 µM.
